# Patent US20250122223A1, “HETEROCYCLIC COMPOUNDS AS UBIQUITIN SPECIFIC PROTEASE 7 INHIBITORS” (ALMAC DISCOVERY LIMITED, priority 2022, published 2025)
# pIC50: −log10 of the molar value.
# How the values were obtained:
# [1] = CLint/CLhep estimates using liver microsomes (human); assay type: in vitro ADME
# Procedure: (§1) Test compounds (final concentration=1 μM; final DMSO concentration=0.1%) were incubated in 0.1M phosphate buffer pH 7.4 with liver microsomes (human, mouse, rat or dog; 0.5 mg of protein/mL) at 37° C. Reactions were started by addition of NADPH in 0.1M phosphate buffer pH 7.4 (final concentration 1 mM). 40 μL aliquots were removed at 3, 6, 10, 15, 20, 30, 40 and 50 minutes. Reactions were quenched in 80 μL of ice-cold methanol. Samples were subsequently frozen overnight then centrifuged at 3500 rpm for 20 minutes at 4° C. The supernatants were removed and transferred into analytical plates and analysed by LC/MS/MS.
# (§2) All samples were analysed on a Waters Acquity I-Class coupled to a Waters Xevo TQD mass spectrometer. A Waters BEH C18 2.1×50 mm 1.7 μm column was used and mobile phases were water and methanol containing 0.1% formic acid as modifier. Analysis was by multiple reaction monitoring and conditions were optimised for each test compound.
# (§3) From a plot of In peak area against time, the gradient of the line is determined.
# (§4) Subsequently, half-life and intrinsic clearance are calculated using the equations below: […]
# (§5) The CLhep was calculated as follows: […]
# (§6) Where CLint (mL/min/kg) is the intrinsic clearance scaled to a whole liver and Qh is hepatic liver blood flow.
# [2] = CLint/CLhep estimates using liver microsomes (rat); assay type: in vitro ADME
# Procedure: as §1, §2, §3, §4, §5, §6
# [3] = CLint/CLhep estimates using liver microsomes (dog); assay type: in vitro ADME
# Procedure: as §1, §2, §3, §4, §5, §6
# [4] = molecular target: T1, USP7 (Homo sapiens (Human), UniProt Q93009); test: USP7 fluorescence polarisation (FP) assay with ubiquitin-Lys-TAMRA substrate; assay type: biochemical; conditions: for IC50: unit not given in Table 3b (Table 1 and key of Table 3a use μM), read-out: USP7 IC50 activity (Table 3b)
# T1 sequence (Q93009 whole entry): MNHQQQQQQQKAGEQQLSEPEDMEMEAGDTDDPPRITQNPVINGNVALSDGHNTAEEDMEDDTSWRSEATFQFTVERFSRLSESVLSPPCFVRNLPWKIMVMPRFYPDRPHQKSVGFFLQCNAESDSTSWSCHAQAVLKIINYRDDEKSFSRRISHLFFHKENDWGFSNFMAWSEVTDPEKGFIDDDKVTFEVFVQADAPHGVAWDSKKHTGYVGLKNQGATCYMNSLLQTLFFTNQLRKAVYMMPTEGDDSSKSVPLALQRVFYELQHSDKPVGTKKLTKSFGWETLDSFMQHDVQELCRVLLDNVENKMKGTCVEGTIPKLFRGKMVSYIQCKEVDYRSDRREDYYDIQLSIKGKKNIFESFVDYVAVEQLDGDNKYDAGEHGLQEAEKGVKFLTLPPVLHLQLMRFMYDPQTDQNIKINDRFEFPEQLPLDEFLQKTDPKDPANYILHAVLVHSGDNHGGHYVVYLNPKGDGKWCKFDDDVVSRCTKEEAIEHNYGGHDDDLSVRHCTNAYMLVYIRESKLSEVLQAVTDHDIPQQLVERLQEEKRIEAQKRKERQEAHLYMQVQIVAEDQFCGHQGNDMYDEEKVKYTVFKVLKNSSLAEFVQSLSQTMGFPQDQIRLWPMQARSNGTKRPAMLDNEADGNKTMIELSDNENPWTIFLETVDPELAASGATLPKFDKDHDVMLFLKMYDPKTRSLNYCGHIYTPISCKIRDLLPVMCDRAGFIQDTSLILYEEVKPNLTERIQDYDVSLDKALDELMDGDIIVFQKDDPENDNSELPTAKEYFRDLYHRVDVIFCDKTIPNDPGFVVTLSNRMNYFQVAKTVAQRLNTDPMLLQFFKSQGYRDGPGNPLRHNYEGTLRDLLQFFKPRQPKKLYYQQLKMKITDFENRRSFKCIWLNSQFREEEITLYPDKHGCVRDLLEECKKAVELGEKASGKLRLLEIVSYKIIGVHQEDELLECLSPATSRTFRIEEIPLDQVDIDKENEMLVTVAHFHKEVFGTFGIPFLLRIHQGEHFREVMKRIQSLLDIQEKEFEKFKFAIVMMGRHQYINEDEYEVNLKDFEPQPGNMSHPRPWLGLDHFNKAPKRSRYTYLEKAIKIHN
# [5] = CLint/CLhep estimates using liver microsomes (mouse); assay type: in vitro ADME
# Procedure: as §1, §2, §3, §4, §5, §6
# [6] = molecular target: T1, USP7; test: Target engagement assay-HTRF, competition with HA-Ub-VPS probe in HEK293 cells stably expressing Flag-tagged USP7; assay type: cell-based; conditions: HEK293 stable clone M6C5, 2 h treatment; read-out: Cellular target engagement: HEK293 Stable clone M6C5 USP7 IC50
# Procedure: HEK293 cells stably expressing Flag-tagged USP7 were treated with vehicle (DMSO) or compound (using 50 μM starting concentration and 11 dp using 1:3 serial dilution) for 2 h and subsequently lysed on ice and homogenised. Cell lysate and HA-Ub-VPS probe was then added to a white flat bottomed 384 well plate (Greiner) to a total volume of 10 μL and incubated for 40 min. 10 μL of D2 and Tb detection antibodies were subsequently added to give a final assay volume of 20 μL. Following incubation, HTRF were measured using a Pherastar FSX (BMG Labtech) exciting at 337 nm and measuring the emission at 620/665 nm. The HTRF ratiometric signal was derived and subsequently normalised to the lysate only controls. Data were plotted and fitted, and the concentrations resulting in 50% inhibition (IC50) were calculated using the non-linear regression curve fitting model using GraphPad Prism. IC50 values for the inhibitors of the invention are compiled in Table 1 above and represent the average of at least duplicate experiments.
# [7] = Kinetic solubility in PBS buffer; assay type: physicochemical; conditions: aqueous buffer, kinetic from dmso stock; PBS buffer pH 7.4
# Procedure: Test compounds (5 μL; 10 mM DMSO stock) were added to 245 μL of PBS buffer pH 7.4 (Dulbecco A) in a Millipore MultiScreen® Solubility Filter plate and mixed at 300 rpm at room temperature on a plate shaker for 90 minutes. Meanwhile 5-points calibration curves for each compound were established in a mixture of acetonitrile/PBS buffer (top concentration 200 μM). After filtration and matrix match, the calibration and assay plates were analysed on a BMG Labtech CLARIOstar plate reader (240-400 nm). Final concentration of the test compound in the filtrate was calculated using the slope of the calibration curve.
# [8] = Pharmacokinetic (PK) parameters in mouse; assay type: in vivo, BALB/c mouse; conditions: for AUC(0-inf) / half-life / Vd: blood; for Vd: read-out: Vss
# [9] = average of at least duplicate experiments, read-out: Biochemical: USP7 IC50
# [10] = biochemical inhibition, read-out: USP7 IC50 activity (Table 3a, classes)
Compound,Liver Microsomes: CLhep Human [1],Liver Microsomes: CLhep Rat [2],Liver Microsomes: CLhep Dog [3],"pIC50 [4, 9]","pIC50 [4, 10]",IC50 ([4]; biochemical inhibition),Liver Microsomes: CLhep Mouse [5],pIC50 [6],solubility kinetic at 90 min [7],CLb ([8]; BALB/c mouse IV 1 mg/kg),F ([8]; BALB/c mouse PO 3 mg/kg),AUC(0-inf) ([8]; BALB/c mouse IV 1 mg/kg),half-life ([8]; BALB/c mouse IV 1 mg/kg),Vd ([8]; BALB/c mouse IV 1 mg/kg),AUC(0-inf) ([8]; BALB/c mouse PO 3 mg/kg)
"C[C@H]1CN[C@H](c2ccc(-n3c(Cl)cc4c(=O)n(CC5(O)CCN(C(=O)[C@]6(C)C[C@H]6C(F)(F)F)CC5)cnc43)cc2)CO1 (single isomer, unassigned) [Example 32, 6-Chloro-3-((4-hydroxy-1-((1S,2S)-1-methyl-2-(trifluoromethyl)cyclopropane-1-carbonyl)piperidin-4-yl)methyl)-7-(4-((3R,6S)-6-methylmorpholin-3-yl)phenyl)-3,7-dihydro-4H-pyrrolo[2,3-d]pyrimidin-4-one or 6-chloro-3-((4-hydroxy-1-((1R,2R)-1-methyl-2-(trifluoromethyl)cyclopropane-1-carbonyl)piperidin-4-yl)methyl)-7-(4-((3R,6S)-6-methylmorpholin-3-yl)phenyl)-3,7-dihydro-4H-pyrrolo[2,3-d]pyrimidin-4-one]",5.8 mL/min/kg,6.5 mL/min/kg,4.5 mL/min/kg,7.32,> 7.00,0.048 µM,11.5 mL/min/kg,6.89,197 µM,28.2 mL/min/kg,116%,591 ng·h/mL,3.5 h,5.49 L/kg,2100 ng·h/mL
"C[C@H]1CN[C@H](c2ccc(-n3c(Cl)cc4c(=O)n(CC5(O)CCN(C(=O)c6ccc(F)cc6)CC5)cnc43)cc2)CO1 [Example 21, 6-Chloro-3-((1-(4-fluorobenzoyl)-4-hydroxypiperidin-4-yl)methyl)-7-(4-((3R,6S)-6-methylmorpholin-3-yl)phenyl)-3,7-dihydro-4H-pyrrolo[2,3-d]pyrimidin-4-one]",3.2 mL/min/kg,6.5 mL/min/kg,4.5 mL/min/kg,6.96,6.60 to 7.00,0.108 µM,19.1 mL/min/kg,6.74,203 µM,35.1 mL/min/kg,40.3%,479 ng·h/mL,2.09 h,3.89 L/kg,593 ng·h/mL
